Data on 54 compounds can be found in US7202265B2, “Indolinone combinatorial libraries and related products and methods for the treatment of disease” (Sugen, Inc., priority 1997, dated 2007).

Each structure is given as a SMILES string.

The experiment relates to human MET. Put plainly: MET biochemical kinase assay. Details: concentration or dose not given beside the values. The text has this:
(d) MET Biochemical Kinase Assay
A met biochemical kinase assay may be performed for met generally as described above for other kinases by substituting that or the other kinases. In particular, ELISA plates are coated with goat anti-rabbit Fc antibodies, which are used to capture commercially available (from Santa Cruz Biotechnology) rabbit polyclonal antibodies to the cytoplasmic domain of human MET. […] The chimeric receptors, or MET, from these lysates are captured on the antibody coated plates. After washing away extraneous proteins, test compounds are added and an in vitro kinase assay is performed by addition of an appropriate kinase buffer (containing ATP, divalent metal ions, etc.). Incorporation of phosphate into the captured receptors is detected with an anti-phosphotyrosine antibody conjugate with horse radish peroxidase using TMB as a substrate for calorimetric detection.
Take `O=C1Nc2c(Br)cc(Br)cc2C1=Cc1ccc[nH]1` [10717/A09]: the “Met Kinase % Inhibition” value came out at 9.4%.

With `Cn1cccc1C=C1C(=O)Nc2ccc(I)cc21` [10717/B04], the “Met Kinase % Inhibition” value is 70.0%.

As to `Cc1ccc(C=C2C(=O)Nc3ccc(I)cc32)s1` [10717/B07], the “Met Kinase % Inhibition” value stood at 90.0%.

As for `Cc1[nH]c(C=C2C(=O)Nc3ccc(I)cc32)c(Br)c1Br` [10717/B11], the “Met Kinase % Inhibition” value amounted to 91.0%.

Take `Cc1c(Br)ccc2c1C(=Cc1cccn1C)C(=O)N2` [10717/C04]: the “Met Kinase % Inhibition” value worked out at 25.0%.

Turning to `CNS(=O)(=O)c1ccc2c(c1)C(=Cc1cccn1C)C(=O)N2` [10717/D04], the “Met Kinase % Inhibition” value worked out at 21.0%.

With `CNS(=O)(=O)c1ccc2c(c1)C(=Cc1ccc(Br)cc1)C(=O)N2` [10717/D08], the “Met Kinase % Inhibition” value was 16.0%.

Take `CCOc1ccccc1C=C1C(=O)Nc2ccc(S(=O)(=O)Nc3ccc(C(F)(F)F)cc3)cc21` [10717/E02]: the “Met Kinase % Inhibition” value is 24.0%.

Regarding `Cc1ccc(C=C2C(=O)Nc3ccc(S(=O)(=O)Nc4ccc(C(F)(F)F)cc4)cc32)s1` [10717/E07], the “Met Kinase % Inhibition” value was found to be 41.0%.

With `O=C1Nc2ccc(S(=O)(=O)N3CCOCC3)cc2C1=Cc1c[nH]c2ccccc12` [10717/F06], the “Met Kinase % Inhibition” value turned out to be 49.0%.

For `O=C1Nc2ccc(S(=O)(=O)N3CCOCC3)cc2C1=Cc1ccc(Br)cc1` [10717/F08], the “Met Kinase % Inhibition” value turned out to be 64.0%.

For the compound `O=C1Nc2ccc(CCCl)cc2C1=Cc1cccs1` [10717/G03], the “Met Kinase % Inhibition” value turned out to be 4.5%.

In the case of `O=C1Nc2ccc(CCCl)cc2C1=Cc1ccc(F)cc1` [10717/G05], the “Met Kinase % Inhibition” value was found to be 4.7%.

In the case of `O=C1Nc2ccc(CCCl)cc2C1=Cc1c[nH]c2ccccc12` [10717/G06], the “Met Kinase % Inhibition” value is recorded as 34.0%.

As for `Cc1ccc(C=C2C(=O)Nc3ccc(CCCl)cc32)s1` [10717/G07], the “Met Kinase % Inhibition” value was 7.5%.

As for `CCOC(=O)CCc1c(C(=O)OCC)[nH]c(C=C2C(=O)Nc3ccc(Br)c(C)c32)c1CC(=O)OCC` [10718/C05], the “Met Kinase % Inhibition” value was found to be 8.7%.

Take `CCOC(=O)c1cc(C=C2C(=O)Nc3ccc(Br)c(C)c32)oc1C` [10718/C06]: the “Met Kinase % Inhibition” value was 3.9%.

Regarding `Cc1c(Br)ccc2c1C(=Cc1ccco1)C(=O)N2` [10718/C10], the “Met Kinase % Inhibition” value was 4.4%.

With `CCOC(=O)c1c(C)[nH]c(C=C2C(=O)Nc3ccc(S(=O)(=O)NC)cc32)c1C` [10718/D02], the “Met Kinase % Inhibition” value is 32.0%.

With `CNS(=O)(=O)c1ccc2c(c1)C(=Cc1ccc(Cl)c([N+](=O)[O-])c1)C(=O)N2` [10718/D08], the “Met Kinase % Inhibition” value was found to be 2.3%.

On to `CNS(=O)(=O)c1ccc2c(c1)C(=Cc1ccc(O)c(C)c1O)C(=O)N2` [10718/D09], for which the “Met Kinase % Inhibition” value is 9.9%.

As for `CCOC(=O)c1cc(C=C2C(=O)Nc3ccc(CCCl)cc32)oc1C` [10718/G06], the “Met Kinase % Inhibition” value is given as 61.0%.

For `COC(=O)c1[nH]c(C)c(C=C2C(=O)Nc3ccc(CCCl)cc32)c1C(=O)OC` [10718/G07], the “Met Kinase % Inhibition” value was found to be 52.0%.

As to `Cc1c(O)ccc(C=C2C(=O)Nc3ccc(CCCl)cc32)c1O` [10718/G09], the “Met Kinase % Inhibition” value came out at 27.0%.

Regarding `O=C1Nc2ccc(CCCl)cc2C1=Cc1ccc([N+](=O)[O-])o1` [10718/G11], the “Met Kinase % Inhibition” value worked out at 3.0%.

Regarding `COc1cc(OC)c(C=C2C(=O)Nc3c(Br)cc(Br)cc32)c(OC)c1` [10719/A06], the “Met Kinase % Inhibition” value was −7.0%.

`O=C1Nc2c(Br)cc(Br)cc2C1=Cc1ccc(F)cc1Cl` [10719/A09]: the “Met Kinase % Inhibition” value came to 47.0%.

In the case of `CCOc1ccc(C=C2C(=O)Nc3ccc(I)cc32)cc1OC` [10719/B02], the “Met Kinase % Inhibition” value is 47.0%.

Turning to `Cc1c(Br)ccc2c1C(=Cc1ccc(O)cc1)C(=O)N2` [10719/C07], the “Met Kinase % Inhibition” value worked out at 7.7%.

On to `Cc1c(Br)ccc2c1C(=Cc1ccc(F)cc1Cl)C(=O)N2` [10719/C09], for which the “Met Kinase % Inhibition” value is on record as 8.9%.

With `Cc1c(Br)ccc2c1C(=Cc1cccc([N+](=O)[O-])c1)C(=O)N2` [10719/C10], the “Met Kinase % Inhibition” value amounted to 7.9%.

In the case of `Cc1c(Br)ccc2c1C(=Cc1ccc(F)cc1C(F)(F)F)C(=O)N2` [10719/C11], the “Met Kinase % Inhibition” value was −5.1%.

Consider `CNS(=O)(=O)c1ccc2c(c1)C(=Cc1ccc(F)cc1Cl)C(=O)N2` [10719/D09], for which the “Met Kinase % Inhibition” value was 13.0%.

Take `COc1ccc(C=C2C(=O)Nc3ccc(S(=O)(=O)Nc4ccc(C(F)(F)F)cc4)cc32)c(OC)c1` [10719/E04]: the “Met Kinase % Inhibition” value is 3.1%.

Consider `CCc1c(C)[nH]c(C=C2C(=O)Nc3ccc(S(=O)(=O)Nc4ccc(C(F)(F)F)cc4)cc32)c1C` [10719/E05], for which the “Met Kinase % Inhibition” value amounted to 39.0%.

For `COc1cc(OC)c(C=C2C(=O)Nc3ccc(S(=O)(=O)Nc4ccc(C(F)(F)F)cc4)cc32)c(OC)c1` [10719/E06], the “Met Kinase % Inhibition” value is recorded as −4.5%.

With `CN(C)c1ccc(C=C2C(=O)Nc3ccc(S(=O)(=O)Nc4ccc(C(F)(F)F)cc4)cc32)cc1` [10719/E08], the “Met Kinase % Inhibition” value turned out to be 80.0%.

As to `COc1ccc(C=C2C(=O)Nc3ccc(S(=O)(=O)N4CCOCC4)cc32)c(OC)c1` [10719/F04], the “Met Kinase % Inhibition” value stood at 3.3%.

On to `COc1cc(OC)c(C=C2C(=O)Nc3ccc(S(=O)(=O)N4CCOCC4)cc32)c(OC)c1` [10719/F06], for which the “Met Kinase % Inhibition” value is −22.0%.

Take `O=C1Nc2ccc(S(=O)(=O)N3CCOCC3)cc2C1=Cc1ccc(F)cc1C(F)(F)F` [10719/F11]: the “Met Kinase % Inhibition” value is on record as 8.7%.

For the compound `CCOc1ccc(C=C2C(=O)Nc3ccc(CCCl)cc32)cc1OC` [10719/G02], the “Met Kinase % Inhibition” value was −2.4%.

On to `COc1ccc(C=C2C(=O)Nc3ccc(CCCl)cc32)c(OC)c1` [10719/G04], for which the “Met Kinase % Inhibition” value is listed as −8.2%.

For `COc1cc(OC)c(C=C2C(=O)Nc3ccc(CCCl)cc32)c(OC)c1` [10719/G06], the “Met Kinase % Inhibition” value was −18.1%.

As to `O=C1Nc2ccc(CCCl)cc2C1=Cc1ccc(O)cc1` [10719/G07], the “Met Kinase % Inhibition” value is 24.0%.

`O=C1Nc2ccc(CCCl)cc2C1=Cc1ccc(F)cc1Cl` [10719/G09]: the “Met Kinase % Inhibition” value came to 1.3%.

As for `O=C1Nc2ccc(CCCl)cc2C1=Cc1ccc(F)cc1C(F)(F)F` [10719/G11], the “Met Kinase % Inhibition” value amounted to 24.0%.

`COc1ccc(C=C2C(=O)Nc3ccc(Br)c(C)c32)cc1OC` [10720/C04]: the “Met Kinase % Inhibition” value is 29.0%.

Take `Cc1c(Br)ccc2c1C(=Cc1ncc[nH]1)C(=O)N2` [10720/C11]: the “Met Kinase % Inhibition” value is recorded as 30.0%.

As to `CNS(=O)(=O)c1ccc2c(c1)C(=Cc1ccccc1O)C(=O)N2` [10720/D05], the “Met Kinase % Inhibition” value is 9.8%.

Regarding `CNS(=O)(=O)c1ccc2c(c1)C(=Cc1cc(OC)ccc1O)C(=O)N2` [10720/D10], the “Met Kinase % Inhibition” value is reported as 51.0%.

Take `O=C1Nc2ccc(S(=O)(=O)Nc3ccc(C(F)(F)F)cc3)cc2C1=Cc1c(F)cc(F)cc1F` [10720/E02]: the “Met Kinase % Inhibition” value is 18.0%.

As to `O=C1Nc2ccc(S(=O)(=O)Nc3ccc(C(F)(F)F)cc3)cc2C1=Cc1ncc[nH]1` [10720/E11], the “Met Kinase % Inhibition” value is reported as −10.4%.

Take `O=C1Nc2ccc(S(=O)(=O)N3CCOCC3)cc2C1=Cc1ncc[nH]1` [10720/F11]: the “Met Kinase % Inhibition” value is on record as 1.6%.

Turning to `COc1ccc(C=C2C(=O)Nc3ccc(CCCl)cc32)cc1OC` [10720/G04], the “Met Kinase % Inhibition” value is 5.0%.
